Measurements: ChEMBL document CHEMBL1127185, “4-Aryltetrahydropyridines as selective ligands” (Bioorg Med Chem Lett, 1993)

Columns and labels:
Mus musculus = experiment: Tested for effective dose causing inhibition of mouse locomotor activity by intraperitoneal administration; assay type: functional; details: ip
Rattus norvegicus [1] = experiment: Tested for the inhibition of dopamine synthesis at 10 mg/kg by intraperitoneal administration; assay type: functional; details: ip
Rattus norvegicus [2] = experiment: Tested for the inhibition of dopamine firing at 2.5 mg/kg by intraperitoneal administration; assay type: functional; details: ip
D(2) dopamine receptor = D(2) dopamine receptor (Rattus norvegicus, UniProt P61169); experiment: Binding affinity against Dopamine receptor D2 in rat striatum using [3H]spiperone; assay type: tissue-based
Rattus norvegicus [3] = experiment: Tested for the inhibition of dopamine synthesis at 10 mg//Kg by intraperitoneal administration; assay type: functional
Rattus norvegicus [4] = experiment: Tested for the inhibition of dopamine firing at 2.5 mg/Kg by intraperitoneal administration; assay type: functional; details: ip

D(2) dopamine receptor, sequence (P61169 whole entry): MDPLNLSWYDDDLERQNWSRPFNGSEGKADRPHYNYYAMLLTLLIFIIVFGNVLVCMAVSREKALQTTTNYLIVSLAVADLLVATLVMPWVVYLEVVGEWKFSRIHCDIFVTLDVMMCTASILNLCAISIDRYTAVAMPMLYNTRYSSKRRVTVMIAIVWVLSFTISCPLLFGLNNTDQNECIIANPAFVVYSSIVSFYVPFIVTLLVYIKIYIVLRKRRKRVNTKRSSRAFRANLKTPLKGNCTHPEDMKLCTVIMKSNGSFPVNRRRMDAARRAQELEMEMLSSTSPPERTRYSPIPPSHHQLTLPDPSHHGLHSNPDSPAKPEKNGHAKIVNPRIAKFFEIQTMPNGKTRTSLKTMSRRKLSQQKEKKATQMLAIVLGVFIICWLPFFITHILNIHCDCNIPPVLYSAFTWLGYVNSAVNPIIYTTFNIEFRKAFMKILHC

Compound	ED50 (Mus musculus) [mg/kg]	Ki (D(2) dopamine receptor) [nM]	further results
Fc1ccc(C2=CCN(CCCCc3ccncc3)CC2)cc1	3.8	5310	inhibition in vivo at 10 mg/kg (Rattus norvegicus [1]): 0%; inhibition in vivo at 2.5 mg/kg (Rattus norvegicus [2]): 9%
Clc1ccc(C2=CCN(CCCCc3ccncc3)CC2)cc1		456	
COc1ccc(C2=CCN(CCCCc3ccncc3)CC2)cc1	7.4	1640	inhibition in vivo at 10 mg/kg (Rattus norvegicus [1]): 18%; inhibition in vivo at 2.5 mg/kg (Rattus norvegicus [2]): 6%
C1=C(c2ccccn2)CCN(CCCCc2ccncc2)C1		322	
C1=C(c2ccc3ccccc3c2)CCN(CCCCc2ccncc2)C1		660	
C1=C(c2c[nH]c3ccccc23)CCN(CCCCc2ccncc2)C1		286	
C1=C(c2ccccc2)CCN(CCCCc2ccncc2)C1	0.6	69.1	Inhibition (Rattus norvegicus [3]): 87%; inhibition in vivo at 2.5 mg/kg (Rattus norvegicus [4]): 80%
Cc1ccc(C2=CCN(CCCCc3ccncc3)CC2)cc1		957	
C1=C(c2cccs2)CCN(CCCCc2ccncc2)C1		496	
